Source: US5840740A, “Aminosterol compounds and a method of treating infection using the aminosterol compounds” (priority 1995, dated 1998)
Converted amounts (≈) assume the structure as drawn. “Also recorded” adds a separate entry of the source. Where two headings read alike, the source gives them in different places.

Key:
[1] = test system: chick embryo vitelline capillaries; test: Chick embryo vitelline capillary regression assay; type: in vivo; parameters: key to vascular reactivity (capillary regression): +: Vascular reactivity; 0: No vascular reactivity; +/-: Equivocal reactivity; settings: for Chick embryo diss. assay, Minimum Effective Concentration: Table II; for vascular reactivity (capillary regression): 60 min
Experimental: Using the chick embryo vitelline capillaries assay, compounds were tested for their ability to induce capillary regression. Each compound was applied in 0.1 ml of 15% Ficol 400 and PBS onto the embryo, and vascular regression was assessed after 60 minutes.
The 3-day chick embryo consists of an embryonic disc from which numerous vessels emerge and return, forming a "figure 8"-shaped structure--the embryo in the center with vascular loops extending outward over both poles. […] Following a lag period of around 15 minutes, the constriction of continuity between capillary and secondary vessels, generally on the "avenous" side, was observed. Continued pulsatile blood flow progressed, resulting in a "swelling" of the blind tube, followed by a pinching off of the remaining connection and formation of an enclosed vascular sac resembling a "blood island." This process progressed until only the largest vessels remained intact.

Xenopus tadpole = settings: stage 59-60, 10 μg/ml; for pharmacological response in tadpole: in words
HM = HM MTT assay; type: cell-based; settings: Table II, Minimum Effective Concentration
S. aureus = test: Antibiotic activity (MIC); type: cell-based; settings: Staphylococcus aureus
[2] = Fasting blood glucose in mice; type: in vivo, mouse (male CD-1); settings: i.v.; in words
Experimental: To study the effect of steroid administrator or the NHE responsible for secretion of insulin, several of the aminosterols from shark liver were administered to fasting mice. Male CD-1 mice were assigned to one of four treatment groups. Whole blood glucose was tested using glucometer (Lifescan Glucometer II and One Touch test strips). Statistical analysis was via one-way analysis of variance (ANOVA) followed by subsequent Bonferonni's t-test.

B16 melanoma = B16 melanoma growth in C57B mice; type: in vivo, mouse; settings: squalamine 5 mg/kg/day; compound 1436 10 mg/kg/every 3 days
Experimental: The growth of B16 melanoma in C57B mice is dependent upon neovascularization.
Using the growth of B16 melanoma cells in C57B mice, a recognized model for the evaluation of inhibitors of angiogenesis on the growth of cancers, the effects of subcutaneous, intraperitoneal and oral administration of squalamine were evaluated.
In this model, there was observed little evidence of metastasis with or without treatment with chemotherapeutic agents.
Based on the idea that tumor growth involves both the clonal expansion of a malignant cell along with the development of a supporting vascular supply, a combination of compound 1436 with squalamine was tested to determine whether it would achieve a synergistic effect on solid tumor growth. This concept was evaluated in the B16 melanoma model.
Animals were implanted with B16 melanoma followed by treatment with compound 1436 or 1256 administered in a combined schedule or separately. […] Thus, a combination of these two compounds achieves a therapeutic benefit in tumors dependent on neovascularization that may prevent metastatic spread.

HIV = test: Inhibition of HIV replication (P-24 Elisa); type: cell-based; settings: 7 days
[3] = Growth and weight gain in mice; type: in vivo, mouse (C57B)
Experimental: Animals were dosed QTD (i.p.) starting on Day 1. […] Animals receiving 5 mg/kg QTD experienced about a 50% reduction in growth, compared to untreated controls, while animals receiving 1 mg/kg QTD were affected by about 10%. […] They appeared very much like hypophysectamized animals might appear.

[4] = Hematological profile in L1210-inoculated mice; settings: L1210 mice; cisplatin 8 mg/kg ip or compound 1436 10 mg/kg ip q4d
From the text: C57B mice were inoculated with L1210 lymphoblastic leukemia cells at an inoculum that causes leukemia in 100% of animals.

Xenopus laevis heart = test: Isolated frog heart beating ex vivo; settings: 10 μg/ml, room temperature; about one hour without compound
Experimental: To determine if compound 1436 has such utility, the following experiment was performed. The heart of a juvenile Xenopus laevis frog was dissected from the living animal. The heart was placed into a Petri dish containing Krebs-Ringer buffer with adrenaline 50 μg/ml, and examined with the naked eye. At room temperature, the heart continued beating in a coordinated fashion (atrial beat followed by ventricular beat) for about one hour. In the presence of 10 μg/ml of compound 1436, spontaneous beating persisted up to 24 hours.

[5] = Arterial resistance / pressure in the rat; type: in vivo; settings: 30 minutes; noradrenaline 40 μg
Experimental: A 200-g rat was catheterized in the right carotid artery, and the compound was introduced over a ten-second period to a total dosage of 5 mg/kg.
At that time, 40 μg of noradrenaline was introduced.

[6] = test system: Human microvascular endothelial cells; test: Growth inhibition in vitro; type: cell-based; settings: 10 μg/ml
From the text: (§1) As set forth in Table 7 below, all malignant tumors evaluated in tissue culture, endothelial cells and vascular smooth muscle cells were sensitive to inhibition. Thus, compound 1436 has application in the control of growth factor dependent proliferation of many types of tissue.

[7] = test system: Human coronary artery smooth muscle cells; test: Growth inhibition in vitro; type: cell-based; settings: 10 μg/ml
From the text: as §1

[8] = test system: Human ovarian carcinoma SKOV3; test: Growth inhibition in vitro; type: cell-based; settings: 10 μg/ml
From the text: as §1

[9] = test system: bovine pulmonary endothelial cells; test: Growth inhibition in vitro; type: cell-based; settings: 10 μg/ml
From the text: as §1

[10] = test system: human umbilical venous endothelial cells; test: Growth inhibition in vitro; type: cell-based; settings: 10 μg/ml
From the text: as §1

[11] = test system: Human colon carcinoma HT29; test: Growth inhibition in vitro; type: cell-based; settings: 10 μg/ml
From the text: as §1

Lewis lung carcinoma = test: Growth inhibition in vitro; type: cell-based; settings: 10 μg/ml
From the text: as §1

Murine B16 melanoma = test: Growth inhibition in vitro; type: cell-based; settings: 10 μg/ml
From the text: as §1

Human melanoma WM 1617 = test: Growth inhibition in vitro; type: cell-based; settings: 10 μg/ml
From the text: as §1

[12] = test system: Human colon carcinoma SW948; test: Growth inhibition in vitro; type: cell-based; settings: 10 μg/ml
From the text: as §1

Murine L1210 leukemia = test: Growth inhibition in vitro; type: cell-based; settings: 10 μg/ml
From the text: as §1

[13] = test system: malignant tumors, endothelial cells and vascular smooth muscle cells; test: Inhibition of growth of a spectrum of cells; type: cell-based; settings: in words
From the text: as §1

[14] = test system: PHA-stimulated human lymphocytes; test: Inhibition of mitogen (PHA)-stimulated growth of human T-cells; type: cell-based; settings: in words; 10 μg/ml
From the text: Results are tabulated below.

rabbit NHE3 = rabbit NHE3 (Oryctolagus cuniculus, UniProt P26432); settings: 10 μg/ml, acid preloaded
Chain of rabbit NHE3 (P26432 30-832): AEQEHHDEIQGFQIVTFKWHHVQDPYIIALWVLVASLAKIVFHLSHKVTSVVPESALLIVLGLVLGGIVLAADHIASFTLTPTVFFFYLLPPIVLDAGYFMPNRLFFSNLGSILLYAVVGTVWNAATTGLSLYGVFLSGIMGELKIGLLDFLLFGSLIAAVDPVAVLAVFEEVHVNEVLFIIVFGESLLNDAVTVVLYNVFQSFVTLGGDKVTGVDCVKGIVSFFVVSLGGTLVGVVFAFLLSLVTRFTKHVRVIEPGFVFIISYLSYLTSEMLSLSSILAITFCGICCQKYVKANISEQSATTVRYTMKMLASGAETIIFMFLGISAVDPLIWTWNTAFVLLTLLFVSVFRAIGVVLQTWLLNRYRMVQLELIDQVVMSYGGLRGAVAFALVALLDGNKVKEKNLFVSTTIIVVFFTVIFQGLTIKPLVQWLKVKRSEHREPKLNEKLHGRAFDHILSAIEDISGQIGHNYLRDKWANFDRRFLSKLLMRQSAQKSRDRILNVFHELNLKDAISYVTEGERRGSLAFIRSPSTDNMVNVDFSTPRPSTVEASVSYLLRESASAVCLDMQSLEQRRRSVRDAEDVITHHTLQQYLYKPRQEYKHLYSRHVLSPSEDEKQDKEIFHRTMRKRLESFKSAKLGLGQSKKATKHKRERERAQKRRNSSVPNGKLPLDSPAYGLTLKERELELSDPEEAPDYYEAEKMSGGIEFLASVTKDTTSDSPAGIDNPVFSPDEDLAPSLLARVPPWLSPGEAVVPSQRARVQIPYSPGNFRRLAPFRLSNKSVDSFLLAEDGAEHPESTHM
Experimental: For cells not acid-preloaded, the actual internal pH value was monitored as a function of time following addition of squalamine, with the results depicted in FIG. 1B.
PS120 fibroblasts transfected with rabbit NHE3 were grown and acid preloaded by exposure to 40 mM NH4 C1 as described above in conjunction with FIGS. 1A and 1B. Internal cellular pH changes expressed as the rate of pH recovery as a function of restored extracellular sodium ion concentration following exposure to 10 μg/ml of the compound were assayed with the fluorescent dye BCECF-AM as described above.

[15] = test system: human coronary artery smooth muscle; test: Proliferation of human coronary artery smooth muscle in vitro; type: cell-based; settings: in words (1436: about 11 μg/ml)
From the text: Aminosterols of the invention may also have utility in inhibiting the growth factor mediated proliferation of smooth muscle within the artery. Following coronary angioplasty, reocclusion commonly occurs, secondary to reparative proliferation of the vascular smooth muscle within the wall of the surgically manipulated blood vessel. This process generally takes place over the course of 7-10 days. To evaluate whether an agent could prevent the growth factor mediated proliferation of smooth muscle within the artery, compound 1436 was evaluated in vitro for its effect on the proliferation of human coronary artery smooth muscle. Results for compound 1436 are shown in FIG. 13, and those for squalamine are shown in FIG. 14, with FIG. 15 being a composite logarithmic plot.

Chemical stability = type: physicochemical

CC(C)CCC[C@@H](C)[C@H]1CC[C@H]2[C@@H]3[C@H](O)C[C@H]4C[C@H](NCCCNCCCCN)CC[C@]4(C)[C@H]3CC[C@]12C [Compound 370]
Chick embryo diss. assay, Minimum Effective Concentration [1]: > 10 µg | pharmacological response in tadpole (Xenopus tadpole): pharmacologic activity similar to that seen for FX 3 | minimal effective concentration (HM): 40 µg/mL

CC(COS(=O)(=O)O)C(=O)CC[C@@H](C)[C@H]1CC[C@H]2[C@@H]3[C@H](O)C[C@H]4C[C@@H](NCCCNCCCCN)CC[C@]4(C)[C@H]3CC[C@]12C (stereo partly drawn)
MIC (S. aureus): 8 mg/L (≈ 12.5 µM)

CC(C)[C@@H](CC[C@@H](C)[C@H]1CC[C@H]2[C@@H]3[C@H](O)C[C@H]4C[C@@H](NCCCNCCCCNCCCN)CC[C@]4(C)[C@H]3CC[C@]12C)OS(=O)(=O)O [Compound 1436]
hyperglycemia [2]: caused hyperglycemia in mice | effect on B16 tumor volume, single agent and combination (B16 melanoma): no significant impact on tumor volume | P-24 Elisa (HIV; 0.5 μM): 40561 | P-24 Elisa (HIV; 1 μM): 7464 | P-24 Elisa (HIV; 5 μM): 3426 | P-24 Elisa (HIV; 10 μM): 421 | P-24 Elisa (HIV; 20 μM): 9 | vascular reactivity (capillary regression) ([1]; 0.001 μg applied): +/- | vascular reactivity (capillary regression) ([1]; 0.01 μg applied): + | vascular reactivity (capillary regression) ([1]; 0.1 μg applied): + | vascular reactivity (capillary regression) ([1]; 1 μg applied): + | vascular reactivity (capillary regression) ([1]; 10 μg applied): + | Chick embryo diss. assay, Minimum Effective Concentration [1]: 1 µg | effect on chick embryo vessels / blood ([1]; in words): causes vitelline capillary regression with about the same potency as squalamine | effect on growth of mice ([3]; 1 mg/kg QTD i.p.): about 10% | reduction in growth of mice ([3]; 5 mg/kg QTD i.p.): ~50% | growth suppression in mice ([3]; 10 mg/kg QTD i.p., about 1 month): almost completely inhibited | clinical health of treated mice ([3]; QTD i.p.): all were active, normally proportioned, not-cachectic, and in excellent apparent clinical health | suppression of growth and weight gain ([3]; in words, QTD i.p.): suppresses both linear growth and weight gain in growing mice in a dose-dependent fashion; also recorded: suppresses the growth of mice in a dose-dependent fashion | time to death (Xenopus tadpole): about 2 hours | pharmacological response in tadpole (Xenopus tadpole): Gradual reduction in overall activity. Heart beat remained strong, suggesting nervous system depression. Melanocytes over head and tail began to swell, first exhibiting visibly distinct nuclei, followed by rupture into fragments. | RBC, Early Time [4]: 4.8 10^6 /mm^3 | RBC, Late Time [4]: 8.8 10^6 /mm^3 | WBC, Early Time [4]: 3.3 10^3 /mm^3 | WBC, Late Time [4]: 3.7 10^3 /mm^3 | persistence of spontaneous beating (Xenopus laevis heart): up to 24 hours | duration / reversibility of arterial effect [5]: followed for 30 minutes, without significant change; also recorded: readily reversible by standard pharmacological practice | growth inhibition in vitro [6]: INHIBITED | growth inhibition in vitro [7]: INHIBITED | growth inhibition in vitro [8]: INHIBITED | growth inhibition in vitro [9]: INHIBITED | growth inhibition in vitro [10]: INHIBITED | growth inhibition in vitro [11]: INHIBITED | growth inhibition in vitro (Lewis lung carcinoma): INHIBITED | growth inhibition in vitro (Murine B16 melanoma): INHIBITED | growth inhibition in vitro (Human melanoma WM 1617): INHIBITED | growth inhibition in vitro [12]: INHIBITED | growth inhibition in vitro (Murine L1210 leukemia): INHIBITED | growth inhibition of a broad spectrum of cells [13]: inhibit the growth of a very broad spectrum of cells | inhibition of blast transformation [14]: inhibited blast transformation most potently | inhibition of rabbit NHE3 (rabbit NHE3): inhibit rabbit NHE3 | inhibition of rabbit NHE3 (rabbit NHE3; listed as compound 1436): inhibitor of NHE3 | growth suppression / viability of smooth muscle cells [15]: maintained in a quiescent state in the presence of this steroid at about 11 μg/ml without loss of viability; also recorded: suppress in vitro the growth of human coronary artery smooth muscle

CC(CCC(=O)C(C)(C)OS(=O)(=O)O)[C@H]1CCC2C3C(CC[C@@]21C)[C@@]1(C)CC[C@H](NCCCNCCCCN)C[C@@H]1C[C@H]3O (stereo partly drawn) [FX 1A]
stability in water (Chemical stability): undergo conversion to another molecule (FX 1B) rapidly in water
